“Also recorded” adds a separate entry of the source. No end group written: not given here.
Columns and labels:
[1] = test system: DCs; assay: Presentation of biotin-conjugated GPA-derived peptides on DCs, fluorescence-labeled streptavidin, flow cytometry; assay type: cell-based, human
Protocol: DCs were loaded with the biotin-conjugated peptides GPA1-9(3TF), GPA9-25(4TF), GPA9-25(6TF), GPA26-43(2TF), GPA34-55(4TF), GPA41-55(3TF), GPA45-55(2TF), GPA48-55(1TF) and GPA48-63(1TF). Presentation was determined by fluorescence-labeled streptavidin. The subpopulations of CD80+CD209+, CD80+CD209− and CD80−CD209− mature DCs were analyzed separately. Mean percentages+SD of one experiment performed in duplicates are shown.
DCs were loaded with the biotin-conjugated peptides. Presentation was determined by fluorescence-labeled streptavidin. The subpopulations CD80+CD209+, CD80+CD209- and CD80−CD209− mature DCs were analyzed separately. Mean percentages+SD of one experiment performed in triplicates are shown.
For that reason the GPA-derived TF-α glycosylated peptides GPA1-9(3TF), GPA9-25(4TF), GPA9-25(6TF), GPA26-43(2TF), GPA34-55(4TF), GPA41-55(3TF), GPA45-55(2TF), GPA48-55(1TF) and GPA48-63(1TF) were employed.
By using four different glycosylation variants of GPA26-43, it was aimed to investigate the effect of TFα-glycosylation on the presentation in more detail.

[2] = test system: TFα-specific T cells; assay: IFN-γ ELISPOT, restimulation of B. ovatus-primed T cells with peptide-loaded DCs; assay type: cell-based, human; conditions: T cells primed with TFα-positive B. ovatus strain
Protocol: PBMCs of a healthy donor were primed with DCs loaded with TFα positive B. ovatus (BO+). Restimulation with GPA26-43(2TF) and GPA34-55(4TF) was analyzed by IFN-γ ELISPOT. The mean numbers of IFN-γ+spots+SEM of one experiment performed in triplicates is shown.
In order to analyze whether DCs loaded with peptide GPA26-43(2TF) or GPA34-55(4TF) can activate TFα-specific T cells, they were used for restimulation of T cells primed with a TFα-positive B. ovatus strain. Restimulation was detected by an IFN-γ ELISPOT assay. […] Since TFα is the only overlapping structure between the TFα-positive B. ovatus strain and the TFα-glycosylated GPA-derived peptides GPA26-43(2TF) and GPA34-55(4TF), it is obvious that the restimulated T cells were TFα-specific. […] This immune response, when elicited in a human being, can protect against cells carrying said carbohydrate structure. In the case of tumor-associated carbohydrate antigens such as TFα, vaccination against and treatment of cancer comprising cells carrying said carbohydrate antigen is possible with these glycosylated glycophorin peptides. Therefore, based on this experiment, GPA-derived TF-α glycosylated peptides are proposed for the use of treating or preventing cancer in human.

[3] = test system: dendritic cells; assay: Effect of antigen processing inhibitors on presentation of TFα derived from aGPA (flow cytometry, Nemod-TF1); assay type: cell-based, human; conditions: DCs treated with inhibitor of lysosomal acidification prior to loading with aGPA
Protocol: DCs were pretreated with indicated concentrations of chloroquine (a) and ammonium chloride (b) before aGPA was added. Presentation of TFα was analyzed by flow cytometry using Nemod-TF1. Data are presented as the percentage of the relative presentation which was calculated according to the following formula: (percentage of positive cells incubated with antigen processing inhibitors)/(percentage of positive cells of untreated cells)×(100)). The means of one experiment performed in duplicates are shown.
In order to characterize the processing pathway of aGPA, dendritic cells were treated with inhibitors of lysosomal acidification, chloroquine and ammonium chloride (MHC class II processing) prior to loading. […] These findings verify that aGPA is processed in the cell before TFα is presented on the cell surface.

[4] = test system: TFα-specific T cells; assay: IFN-γ ELISPOT, second restimulation of TFα-specific T cells with aGPA- or GPA-loaded dendritic cells; assay type: cell-based; conditions: T cells primed with TFα positive B. ovatus strain and restimulated with lysate of TFα positive human cell line
Protocol: PBMCs of a healthy donor were twice primed with DCs loaded with a TFα positive B. ovatus strain (BO+). Restimulation with DCs loaded with lysate of a TFα positive (HC+) or TFα negative (HC−) human cell line was analyzed by IFN-γ ELISPOT. T cells restimulated with TFα positive cells were further cultivated and restimulated in a second round with aGPA- and GPA-loaded DCs, which was analyzed by IFN-γ ELISPOT. The mean numbers of IFN-γ+spots+SEM of one experiment performed in triplicates (1st restimulation) or of four replicates (2nd restimulation) are shown. IFN-γ+spots of PBMCs without restimulation were subtracted. Statistical analysis was performed using 1 way ANOVA (***: P<0.001).
In order to analyze whether asialoglycophorin A (aGPA)-loaded dendritic cells (DCs) have the potential to activate TFα-specific T cells, a T cell culture, which was primed with a TFα positive B. ovatus strain and restimulated with lysate of a TFα positive human cell line, was restimulated in a second round with dendritic cells loaded with either aGPA or glycophorin A (GPA).

[5] = test system: dendritic cells; assay: Flow cytometry of TFα presentation on dendritic cells loaded with aGPA or GPA (Nemod-TF1, Nemod-TF2); assay type: cell-based, human
Protocol: GPA- and aGPA-loaded cells were stained with Nemod-TF1 and Nemod-TF2 and analyzed by flow cytometry. The subpopulations of CD80+CD209+, CD80+CD209− and CD80−CD209− cells were analyzed separately. The mean percentages of positive cells+SD of one experiment performed in duplicates are shown.
DCs were loaded with aGPA and GPA for indicated time periods. Presentation of TFα was analyzed on the subpopulations of CD80+CD209+ (a), CD80+CD209− (b) and CD80−CD209− (c) DCs by flow cytometry using Nemod-TF1. Data are presented as mean percentage of positive cells±SD of one experiment performed in duplicates.
In order to analyze the antigen presentation of aGPA in more detail, dendritic cells loaded with aGPA and GPA were analyzed by flow cytometry using anti-TFα antibodies and for co-staining anti-CD80 and anti-CD209 antibodies.
In order to test whether aGPA is unspecifically attached to the cell surface of DCs, aGPA was added 10 min prior to the analysis of surface presentation with the TFα-specific antibody Nemod-TF1 and compared to TFα-presentation after loading times of 1 and 2 d. […] This is important since the presentation on MHC proteins is crucial for activation of TF-α specific T cells.

Molecule: GPA26-43: the unglycosylated GPA26-43, biotin-conjugated peptide (NDTHKRDTYAATPRAHEV; also: biotin-conjugated, site not given here) [reference compound]
- presentation of peptide on DCs (percentage of positive cells) [1]: presented at a similar percentage

Molecule: GPA26-43(1TFaa37): glycosylation variant of GPA26-43, biotin-conjugated peptide (NDTHKRDTYAAT(TF‑α)PRAHEV; also: biotin-conjugated, site not given here)
- presentation of peptide on DCs (percentage of positive cells) [1]: less effectively presented than GPA26-43(1TFaa33) and GPA26-43, but more effectively than GPA26-43(2TF)

Molecule: GPA26-43(2TF): biotin-conjugated GPA-derived TF-α glycosylated peptide (NDTHKRDTYAATPRAHEV; also: 2 TF-α glycans, sites not given here, biotin-conjugated, site not given here)
- presentation of peptide on DCs (percentage of positive cells) [1]: strongest presentation on DCs; also recorded: better presentation on DCs than GPA34-55(4TF); also recorded: found to be presented on DCs
- activation of T cells on restimulation with peptide-loaded DCs (IFN-γ ELISPOT) [2]: stronger activation of T cells compared to DCs loaded with GPA34-55(4TF)

Molecule: GPA26-43(1TFaa33): glycosylation variant of GPA26-43, biotin-conjugated peptide (NDTHKRDT(TF‑α)YAATPRAHEV; also: biotin-conjugated, site not given here)
- presentation of peptide on DCs (percentage of positive cells) [1]: presented at a similar percentage

Molecule: GPA1-9(3TF): biotin-conjugated GPA-derived TF-α glycosylated peptide (SSTTGVAMH; also: 3 TF-α glycans, sites not given here, biotin-conjugated, site not given here)
- presentation of peptide on DCs (percentage of positive cells) [1]: strongest presentation on DCs

Molecule: CCN(CC)CCCC(C)Nc1ccnc2cc(Cl)ccc12 (stereo not shown) [chloroquine]
- effect on presentation of TFα derived from aGPA [3]: blocked the presentation of TFα

Molecule: Cl.N [ammonium chloride]
- effect on presentation of TFα derived from aGPA [3]: blocked the presentation of TFα

Molecule: GPA48-63(1TF): biotin-conjugated GPA-derived TF-α glycosylated peptide (VRTVYPPEEETGERVQ; also: 1 TF-α glycan, site not given here, biotin-conjugated, site not given here)
- presentation of peptide on DCs (percentage of positive cells) [1]: strongest presentation on DCs

B1: asialoglycophorin A (protein)
chain: SSTTGVAMHTSTSSSVTKSYISSQTNDTHKRDTYAATPRAHEVSEISVRTVYPPEEETGERVQLAHHFSEPEITLIIFGVMAGVIGTILLISTGIRRLIKKSPSDVKPLPSPDTDVPLSSVEIENPETSDQ
notes: asialoglycophorin A (aGPA)
- activation of T cells on restimulation with loaded dendritic cells (IFN-γ ELISPOT) [4]: visible activation of T cells
- percentage of Nemod-TF1- and Nemod-TF2-positive cells (TFα presentation) on loaded DCs ([5]; CD80+CD209+, CD80+CD209− and CD80−CD209− DCs): increased percentage of Nemod-TF1- and Nemod-TF2-positive cells compared to GPA-loaded cells
- TFα presentation on DCs when added just before staining (unspecific attachment) ([5]; added 10 min prior to analysis with Nemod-TF1, compared to loading times of 1 and 2 d, all three DC subpopulations): no presentation was found

B2: glycophorin A (protein)
chain: SSTTGVAMHTSTSSSVTKSYISSQTNDTHKRDTYAATPRAHEVSEISVRTVYPPEEETGERVQLAHHFSEPEITLIIFGVMAGVIGTILLISTGIRRLIKKSPSDVKPLPSPDTDVPLSSVEIENPETSDQ
notes: glycophorin A (GPA)
- activation of T cells on restimulation with loaded dendritic cells (IFN-γ ELISPOT) [4]: almost no restimulation

— patent US20160304577A1, “GLYCOSYLATED GLYCOPHORIN PEPTIDES” (GLYCOTOPE GMBH, priority 2013, published 2016)
